Source: ChEMBL document CHEMBL1909046, “DrugMatrix in vitro pharmacology data”

What was measured:
[1] = DRUGMATRIX: Imidazoline I2, Central radioligand binding (ligand: [3H] Idazoxan); format: cell membranes, Rattus norvegicus, Wistar, Cerebral cortex, Membrane; settings: Not Active = under 50% inhibition at 10 µM
[2] = target: T1, C-C chemokine receptor type 4 (Homo sapiens, UniProt P51679); format: cell membranes, Membrane; settings: chem-1; also: in other assays of this panel Not Active means under 50% inhibition at 10 µM
T1 sequence (P51679 whole entry): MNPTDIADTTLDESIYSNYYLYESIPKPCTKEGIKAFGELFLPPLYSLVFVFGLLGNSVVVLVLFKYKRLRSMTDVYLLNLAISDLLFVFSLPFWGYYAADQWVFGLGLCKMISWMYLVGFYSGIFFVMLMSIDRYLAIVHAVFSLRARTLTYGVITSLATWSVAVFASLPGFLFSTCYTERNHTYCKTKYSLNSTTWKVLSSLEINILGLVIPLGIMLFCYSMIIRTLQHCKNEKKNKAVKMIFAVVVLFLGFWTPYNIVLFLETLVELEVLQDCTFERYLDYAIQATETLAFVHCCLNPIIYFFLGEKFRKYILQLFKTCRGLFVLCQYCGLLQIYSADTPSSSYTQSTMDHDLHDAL

[3] = target: T2, Muscarinic acetylcholine receptor M4 (Homo sapiens, UniProt P08173); format: cell membranes, CHO-K1, Membrane; also: in other assays of this panel Not Active means under 50% inhibition at 10 µM
T2 sequence (P08173 whole entry): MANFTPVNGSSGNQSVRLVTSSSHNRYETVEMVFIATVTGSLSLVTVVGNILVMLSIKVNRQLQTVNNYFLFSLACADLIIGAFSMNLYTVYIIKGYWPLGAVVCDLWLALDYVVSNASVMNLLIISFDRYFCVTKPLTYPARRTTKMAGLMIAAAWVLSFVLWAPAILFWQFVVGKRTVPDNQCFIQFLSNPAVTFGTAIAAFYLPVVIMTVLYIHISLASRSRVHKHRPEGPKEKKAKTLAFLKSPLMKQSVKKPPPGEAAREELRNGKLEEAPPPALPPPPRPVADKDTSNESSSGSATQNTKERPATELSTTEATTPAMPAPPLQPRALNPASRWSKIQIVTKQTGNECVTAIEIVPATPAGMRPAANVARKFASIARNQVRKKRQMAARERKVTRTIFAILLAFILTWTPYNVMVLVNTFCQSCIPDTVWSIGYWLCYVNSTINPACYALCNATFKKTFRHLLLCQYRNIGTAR

D(3) dopamine receptor = D(3) dopamine receptor (Homo sapiens, UniProt P35462); assay: DRUGMATRIX: Dopamine D3 radioligand binding (ligand: [3H] Spiperone); format: cell membranes, CHO, Membrane; settings: cho
[4] = target: T3, C-X-C chemokine receptor type 1 (Homo sapiens, UniProt P25024); also: in other assays of this panel Not Active means under 50% inhibition at 10 µM
T3 sequence (P25024 whole entry): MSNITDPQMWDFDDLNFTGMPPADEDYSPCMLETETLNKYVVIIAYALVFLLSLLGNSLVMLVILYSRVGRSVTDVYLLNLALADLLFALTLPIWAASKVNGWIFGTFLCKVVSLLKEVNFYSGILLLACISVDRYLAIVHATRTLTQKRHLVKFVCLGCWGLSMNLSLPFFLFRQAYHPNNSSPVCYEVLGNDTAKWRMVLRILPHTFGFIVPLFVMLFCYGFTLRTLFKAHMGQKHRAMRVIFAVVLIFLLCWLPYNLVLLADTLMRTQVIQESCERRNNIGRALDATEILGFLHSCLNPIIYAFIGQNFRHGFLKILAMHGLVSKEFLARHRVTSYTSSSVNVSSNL

Estrogen receptor beta = Estrogen receptor beta (Homo sapiens, UniProt Q92731); settings: sf9; also: in other assays of this panel Not Active means under 50% inhibition at 10 µM
Sequence of Estrogen receptor beta (Q92731 whole entry): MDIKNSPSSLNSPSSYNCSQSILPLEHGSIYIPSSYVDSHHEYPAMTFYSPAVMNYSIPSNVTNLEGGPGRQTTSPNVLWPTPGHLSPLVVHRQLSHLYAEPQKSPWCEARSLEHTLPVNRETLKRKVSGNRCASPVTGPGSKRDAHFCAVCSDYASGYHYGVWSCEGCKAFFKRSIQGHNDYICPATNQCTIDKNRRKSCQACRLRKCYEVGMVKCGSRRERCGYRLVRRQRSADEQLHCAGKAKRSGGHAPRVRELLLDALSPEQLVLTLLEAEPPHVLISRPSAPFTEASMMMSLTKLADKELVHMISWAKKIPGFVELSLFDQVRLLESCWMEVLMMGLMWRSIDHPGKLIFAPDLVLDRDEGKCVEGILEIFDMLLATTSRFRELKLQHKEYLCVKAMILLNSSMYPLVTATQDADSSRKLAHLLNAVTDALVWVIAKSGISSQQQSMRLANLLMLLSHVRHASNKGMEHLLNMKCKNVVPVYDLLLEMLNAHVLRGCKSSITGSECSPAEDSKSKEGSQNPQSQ

Sequence of D(3) dopamine receptor (P35462 whole entry): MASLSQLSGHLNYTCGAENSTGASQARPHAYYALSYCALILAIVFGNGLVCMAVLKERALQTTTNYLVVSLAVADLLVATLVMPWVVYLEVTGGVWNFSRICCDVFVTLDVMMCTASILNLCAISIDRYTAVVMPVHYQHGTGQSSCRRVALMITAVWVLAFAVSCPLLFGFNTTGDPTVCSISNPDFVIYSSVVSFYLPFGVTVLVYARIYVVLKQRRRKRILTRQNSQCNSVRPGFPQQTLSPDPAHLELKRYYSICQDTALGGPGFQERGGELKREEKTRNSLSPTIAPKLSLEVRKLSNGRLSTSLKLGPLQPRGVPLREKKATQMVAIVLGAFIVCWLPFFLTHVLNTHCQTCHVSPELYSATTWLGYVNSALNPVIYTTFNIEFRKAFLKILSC

Row | SMILES | IC50 [1] | Ki [1] | IC50 [2] | IC50 ([3]; cho-k1) | IC50 (D(3) dopamine receptor) | IC50 [4] | IC50 (Estrogen receptor beta) | IC50 ([1]; read-out: IC50) | Ki ([1]; read-out: Ki) | IC50 ([3]; read-out: IC50) | Ki ([3]; read-out: Ki)
1 | CCOc1nc2cccc(C(=O)O)c2n1Cc1ccc(-c2ccccc2-c2nnn[nH]2)cc1 | Not Active | Not Active | Not Active | Not Active | Not Active | Not Active | Not Active | – | – | – | –
2 | O=C(O)CCCc1cccs1 | Not Active | Not Active | Not Active | Not Active | Not Active | Not Active | Not Active | – | – | – | –
3 | COc1ccccc1N | Not Active | Not Active | Not Active | Not Active | Not Active | Not Active | – | – | – | – | –
4 | O=C(c1ccccc1F)N1CCC(Cc2ccccc2)CC1 | Not Active | Not Active | Not Active | Not Active | Not Active | Not Active | Not Active | – | – | – | –
5 | Cc1c(O)cccc1C(=O)N[C@@H](CSc1ccccc1)[C@H](O)CN1C[C@H]2CCCC[C@H]2C[C@H]1C(=O)NC(C)(C)C | Not Active | Not Active | Not Active | Not Active | Not Active | Not Active | – | – | – | – | –
6 | CC(O)COC[C@H]1O[C@@H]2O[C@H]3[C@H](O)[C@@H](O)[C@@H](O[C@H]4[C@H](O)[C@@H](O)[C@@H](O[C@H]5[C@H](O)[C@@H](O)[C@@H](O[C@H]6[C@H](O)[C@@H](O)[C@@H](O[C@H]7[C@H](O)[C@@H](O)[C@@H](O[C@H]8[C@H](O)[C@@H](O)[C@@H](O[C@H]1[C@H](O)[C@H]2O)O[C@@H]8COCC(C)O)O[C@@H]7COCC(C)O)O[C@@H]6COCC(C)O)O[C@@H]5COCC(C)O)O[C@@H]4COCC(C)O)O[C@@H]3COCC(C)O (stereo partly drawn) [2-HYDROXYPROPYL-BETA-CYCLODEXTRIN] | Not Active | Not Active | Not Active | Not Active | Not Active | Not Active | Not Active | – | – | – | –
7 | NC(=O)c1cccc(N)c1 [3-AMINOBENZAMIDE] | Not Active | Not Active | Not Active | Not Active | Not Active | Not Active | Not Active | – | – | – | –
8 | C[C@H]1O[C@H](O[C@H]2[C@H](O)[C@@H](O)[C@@H](O[C@H]3[C@H](O)[C@@H](O)C(O)O[C@@H]3CO)O[C@@H]2CO)[C@H](O)[C@@H](O)[C@@H]1N[C@H]1C=C(CO)[C@@H](O)[C@H](O)[C@H]1O (stereo partly drawn) [ACARBOSE] | Not Active | Not Active | Not Active | Not Active | Not Active | Not Active | Not Active | – | – | – | –
9 | CC[C@H]1[C@@H]2C[C@H]3[C@@H]4N(C)c5ccccc5[C@]45C[C@@H]([C@@H]2[C@H]5O)N3[C@@H]1O [AJMALINE] | Not Active | Not Active | Not Active | Not Active | Not Active | Not Active | Not Active | – | – | – | –
10 | NC12CC3CC(CC(C3)C1)C2 [AMANTADINE] | Not Active | Not Active | Not Active | Not Active | Not Active | Not Active | – | – | – | – | –
11 | CC(C)c1c(C(=O)Nc2ccccc2)c(-c2ccccc2)c(-c2ccc(F)cc2)n1CC[C@@H](O)C[C@@H](O)CC(=O)O [ATORVASTATIN] | Not Active | Not Active | Not Active | Not Active | Not Active | Not Active | – | – | – | – | –
12 | COc1cc(OC)c(C(=O)CCCN2CCCC2)c(OC)c1 [BUFLOMEDIL] | Not Active | Not Active | Not Active | Not Active | Not Active | Not Active | – | – | – | – | –
13 | Cn1c(=O)c2c(ncn2C)n(C)c1=O [CAFFEINE] | Not Active | Not Active | Not Active | Not Active | Not Active | Not Active | – | – | – | – | –
14 | CC(C)NCC(O)c1ccccc1Cl (stereo not drawn) [CLORPRENALINE] | Not Active | Not Active | Not Active | Not Active | Not Active | Not Active | – | – | – | – | –
15 | C[S+](C)[O-] [DIMETHYL SULFOXIDE] | Not Active | Not Active | Not Active | Not Active | Not Active | Not Active | – | – | – | – | –
16 | CC(O)(P(=O)(O)O)P(=O)(O)O [ETIDRONIC ACID] | Not Active | Not Active | Not Active | Not Active | Not Active | Not Active | – | – | – | – | –

Row | SMILES | IC50 [1] | Ki [1] | IC50 [2] | IC50 ([3]; cho-k1) | IC50 (D(3) dopamine receptor) | IC50 [4] | IC50 (Estrogen receptor beta) | IC50 ([1]; read-out: IC50) | Ki ([1]; read-out: Ki) | IC50 ([3]; read-out: IC50) | Ki ([3]; read-out: Ki)
17 | CCOC(=O)c1ncn2c1CN(C)C(=O)c1cc(F)ccc1-2 [FLUMAZENIL] | Not Active | Not Active | Not Active | Not Active | Not Active | Not Active | – | – | – | – | –
18 | O=C(O)P(=O)(O)O [FOSCARNET] | Not Active | Not Active | Not Active | Not Active | Not Active | Not Active | – | – | – | – | –
19 | O=c1c(-c2ccc(O)cc2)coc2cc(O)cc(O)c12 [GENISTEIN] | Not Active | Not Active | Not Active | Not Active | Not Active | Not Active | – | – | – | – | –
20 | C[N+](C)(C)C[C@H](O)CC(=O)[O-] [LEVOCARNITINE] | Not Active | Not Active | Not Active | Not Active | Not Active | Not Active | – | – | – | – | –
21 | C[C@H]1COc2c(N3CCN(C)CC3)c(F)cc3c(=O)c(C(=O)O)cn1c23.C[C@H]1COc2c(N3CCN(C)CC3)c(F)cc3c(=O)c(C(=O)O)cn1c23.O [LEVOFLOXACIN] | Not Active | Not Active | Not Active | Not Active | Not Active | Not Active | – | – | – | – | –
22 | CCn1cc(C(=O)O)c(=O)c2cc(F)c(N3CCNC(C)C3)c(F)c21 (stereo not drawn) [LOMEFLOXACIN] | Not Active | Not Active | Not Active | Not Active | Not Active | Not Active | – | – | – | – | –
23 | CN(C)C(=N)NC(=N)N [METFORMIN] | Not Active | Not Active | Not Active | Not Active | Not Active | Not Active | – | – | – | – | –
24 | CN(C)C(=O)Oc1cccc([N+](C)(C)C)c1.[Br-] [NEOSTIGMINE BROMIDE] | Not Active | Not Active | Not Active | Not Active | Not Active | Not Active | – | – | – | – | –
25 | CN1C(=O)CN=C(c2ccccc2)c2cc([N+](=O)[O-])ccc21 [NIMETAZEPAM] | Not Active | Not Active | Not Active | Not Active | Not Active | Not Active | – | – | – | – | –
26 | COc1ccc2c(c1OC)C(=O)O[C@@H]2[C@H]1c2c(cc3c(c2OC)OCO3)CCN1C [NOSCAPINE] | Not Active | Not Active | Not Active | Not Active | Not Active | Not Active | – | – | – | – | –
27 | N=C(N)c1ccc(OCCCCCOc2ccc(C(=N)N)cc2)cc1 [PENTAMIDINE] | – | – | Not Active | – | – | Not Active | – | 3520 nM | 2350 nM | 1580 nM | 220 nM
28 | NNCCc1ccccc1 [PHENELZINE] | Not Active | Not Active | Not Active | Not Active | Not Active | Not Active | – | – | – | – | –
29 | CCCNC(C)C(=O)Nc1ccccc1C (stereo not drawn) [PRILOCAINE] | Not Active | Not Active | Not Active | Not Active | Not Active | Not Active | – | – | – | – | –
30 | C[C@]12C=CC(=O)C=C1CC[C@H]1[C@@H]3C[C@@H](O)[C@](O)(C(=O)CO)[C@@]3(C)C[C@H](O)[C@@]12F [TRIAMCINOLONE] | Not Active | Not Active | Not Active | Not Active | Not Active | Not Active | – | – | – | – | –
31 | CCN(C(C)=O)c1cccc(-c2ccnc3c(C#N)cnn23)c1 [ZALEPLON] | Not Active | Not Active | Not Active | Not Active | Not Active | Not Active | – | – | – | – | –
